Like-named read-outs stand apart in the source and are kept apart here.

Data set [1] relates to SARS-CoV-2. The settings on record: known values of FDA approved drugs; cited from earlier work.
Data set [2] concerns SARS-CoV-2. The format is cell-based.
The target in data set [3] is ACE2 binding to SARS-CoV-2 S1-RBD (Homo sapiens, UniProt Q9BYF1). Kind of data set: ELISA of ACE2/S1-RBD inhibitory activity. The arrangement: species or system human ACE2 / SARS-CoV-2. The following applies: recombinant 2019-nCoV S1-RBD coated plate, read-out: IC50 inhibiting ACE2 binding to SARS-CoV-2 S1-RBD. For orientation: In an ELISA, binding on a coated surface is turned into a signal by an enzyme label.

In the next data set the test system is VeroE6-EGFP cells. The settings on record: no virus.

ACE2 binding to SARS-CoV-2 S1-RBD, sequence (Q9BYF1 18-740): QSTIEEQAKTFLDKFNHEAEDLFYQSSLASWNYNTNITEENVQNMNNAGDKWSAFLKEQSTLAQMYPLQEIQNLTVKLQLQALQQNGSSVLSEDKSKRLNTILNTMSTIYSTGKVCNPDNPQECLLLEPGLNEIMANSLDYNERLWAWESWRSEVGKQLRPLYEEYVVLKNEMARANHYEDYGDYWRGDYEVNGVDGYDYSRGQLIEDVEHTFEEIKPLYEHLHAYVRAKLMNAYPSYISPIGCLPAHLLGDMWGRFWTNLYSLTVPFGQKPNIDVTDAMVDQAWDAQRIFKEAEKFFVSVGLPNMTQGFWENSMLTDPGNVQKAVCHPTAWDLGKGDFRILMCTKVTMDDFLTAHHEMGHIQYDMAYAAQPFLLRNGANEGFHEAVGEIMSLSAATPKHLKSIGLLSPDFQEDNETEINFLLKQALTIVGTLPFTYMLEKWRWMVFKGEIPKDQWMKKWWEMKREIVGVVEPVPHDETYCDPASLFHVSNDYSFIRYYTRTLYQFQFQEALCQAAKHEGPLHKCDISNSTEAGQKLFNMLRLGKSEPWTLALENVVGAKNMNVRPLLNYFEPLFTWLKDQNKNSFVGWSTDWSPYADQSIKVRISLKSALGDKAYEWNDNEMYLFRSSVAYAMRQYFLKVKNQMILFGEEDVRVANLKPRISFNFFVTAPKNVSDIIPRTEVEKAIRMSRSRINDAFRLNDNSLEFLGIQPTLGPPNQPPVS

For the compound `CC(C)(C)NC(=O)[C@@H]1CN(Cc2cccnc2)CCN1C[C@@H](O)C[C@@H](Cc1ccccc1)C(=O)N[C@H]1c2ccccc2C[C@H]1O` [Indinavir], the EC50 (commonly the concentration that produces a half-maximal response) in the data set with SARS-CoV-2 [1] was 59.1 µM.
Regarding `Nc1nc2c(ncn2CCC(CO)CO)c(=O)[nH]1` [Penciclovir], the EC50 in the data set on SARS-CoV-2 [1] was 96 µM.
Compound Kobophenol A displayed an EC50 in the data set with SARS-CoV-2 [2] of 71.6 µM. Further, the concentration for half-maximal inhibition (IC50) (commonly the concentration at which inhibition is half-maximal) in data set [3] was determined as 1.81 ± 0.04 µM. Further, in the data set on VeroE6-EGFP cells, the CC50 (as a rule, the concentration at which the toxic effect on the cells reaches its halfway point) was over 100 µM.

(Values after patent publication US20210388455A1 (priority 2020, published 2021).)
